In patent US8633200B2, “Inhibitors of human immunodeficiency virus replication” (priority 2010, dated 2014):
Structures can show the parent of a compound that is named as a salt.

These compounds were tested on recombinant NL-Rluc virus (NL4-3 with Renilla Luciferase gene) in MT-2 cells (assay: Inhibition of HIV replication (NL-Rluc luciferase reporter virus, MT-2 cells)). Conditions: NL43, 120 h, read-out: Activity.
Type: cell-based, human immunodeficiency virus (HIV)
Compound `Cc1nc2cc(-c3ccccc3)nn2c(-c2ccc3c(c2)CCCO3)c1C(OC(C)(C)C)C(=O)O` (stereo not drawn) [Example 3] has an EC50 of 0.1 to 1 µM. In the case of `Cc1nc2cc(-c3ccccc3)nn2c(-c2ccc3c(c2)OCCO3)c1C(OC(C)(C)C)C(=O)O` (stereo not drawn) [Example 19], the EC50 is reported as over 1 µM. Compound `Cc1nc2cc(-c3ccccc3)nn2c(-c2ccc(Cl)cc2Cl)c1C(OC(C)(C)C)C(=O)O` (stereo not drawn) [Example 81] has an EC50 of over 1 µM. `Cc1nc2cc(-c3cccc(-c4cccc(F)c4)c3)nn2c(-c2cc(F)c3c(c2C)CCCO3)c1[C@H](OC(C)(C)C)C(=O)O` [Example 128, (2S)-2-(tert-Butoxy)-2-(7-(8-fluoro-5-methylchroman-6-yl)-2-(3′-fluoro-[1,1′-biphenyl]-3-yl)-5-methylpyrazolo[1,5-a]pyrimidin-6-yl)acetic acid, TFA salt] gave an EC50 of under 0.1 µM. With `Cc1nc2cc(-c3ccccc3)nn2c(-c2ccc3ccncc3c2)c1C(OC(C)(C)C)C(=O)O` (stereo not drawn) [Example 79] the EC50 was over 1 µM. Work on `Cc1nc2cc(-c3cccc(-c4cnn(C)c4)c3)nn2c(-c2cc(F)c3c(c2C)CCCO3)c1[C@H](OC(C)(C)C)C(=O)O` [Example 131, (2S)-2-(tert-Butoxy)-2-(7-(8-fluoro-5-methylchroman-6-yl)-5-methyl-2-(3-(1-methyl-1H-pyrazol-4-yl)phenyl)pyrazolo[1,5-a]pyrimidin-6-yl)acetic acid] yielded an EC50 of under 0.1 µM. `Cc1nc2cc(-c3ccc(OCc4ccccc4)cc3)nn2c(-c2cc(F)c3c(c2C)CCCO3)c1C(OC(C)(C)C)C(=O)O` (stereo not drawn) [Example 95, 2-(2-(4-(Benzyloxy)phenyl)-7-(8-fluoro-5-methylchroman-6-yl)-5-methylpyrazolo[1,5-a]pyrimidin-6-yl)-2-tert-butoxyacetic acid, TFA salt] gave an EC50 of under 0.1 µM. Work on `Cc1nc2cc(-c3ccccc3)nn2c(-c2ccc(Cl)c(Cl)c2)c1C(OC(C)(C)C)C(=O)O` (stereo not drawn) [Example 84] yielded an EC50 of over 1 µM. Compound `COc1ccncc1-c1cccc(-c2nn3c(-c4cc(F)c5c(c4C)CCCO5)c([C@H](OC(C)(C)C)C(=O)O)c(C)nc3c2C)c1` [Example 160, (2S)-2-(tert-Butoxy)-2-(7-(8-fluoro-5-methylchroman-6-yl)-2-(3-(4-methoxypyridin-3-yl)phenyl)-3,5-dimethylpyrazolo[1,5-a]pyrimidin-6-yl)acetic acid] has an EC50 of under 0.1 µM. `Cc1nc2cc(-c3ccccc3)nn2c(C)c1C(OC(C)(C)C)C(=O)O` (stereo not drawn) [Example 43, 2-tert-Butoxy-2-(5,7-dimethyl-2-phenylpyrazolo[1,5-a]pyrimidin-6-yl)acetic acid, TFA salt] was tested, and the EC50 was over 1 µM. `Cc1cccc(-c2c(C(OC(C)(C)C)C(=O)O)c(C)nc3cc(-c4ccccc4)nn23)c1` (stereo not drawn) [Example 17] gave an EC50 of over 1 µM. `Cc1cc(-c2cccc(-c3cc4nc(C)c([C@H](OC(C)(C)C)C(=O)O)c(-c5cc(F)c6c(c5C)CCCO6)n4n3)c2)ccn1` [Example 170, (2S)-2-(tert-Butoxy)-2-(7-(8-fluoro-5-methylchroman-6-yl)-5-methyl-2-(3-(2-methylpyridin-4-yl)phenyl)pyrazolo[1,5-a]pyrimidin-6-yl)acetic acid] was tested, and the EC50 was under 0.1 µM. With `CCc1ccc(-c2c(C(OC(C)(C)C)C(=O)O)c(C)nc3cc(-c4ccccc4)nn23)cc1` (stereo not drawn) [Example 56] the EC50 was over 1 µM. In the case of `Cc1ccc(-c2c([C@H](OC(C)(C)C)C(=O)O)c(C)nc3cc(-c4ccc5c(c4)CCCC5)nn23)cc1` [Example 153, (S)-2-(tert-Butoxy)-2-(5-methyl-2-(5,6,7,8-tetrahydronaphthalen-2-yl)-7-(p-tolyl)pyrazolo[1,5-a]pyrimidin-6-yl)acetic acid], the EC50 is reported as 0.1 to 1 µM. `Cc1nc2cc(-c3ccccc3)nn2c(-c2cnc3[nH]ccc3c2)c1C(OC(C)(C)C)C(=O)O` (stereo not drawn) [Example 78] was tested, and the EC50 was over 1 µM. Compound `Cc1nc2cc(-c3ccccc3)nn2c(-c2ccc(Cl)cc2)c1C(OC(C)(C)C)C(=O)O` (stereo not drawn) [Example 4] has an EC50 of over 1 µM.

Same assay, conditions: NL43, 120 h, read-out: EC50 μM
`COc1ccncc1-c1cccc(-c2nn3c(-c4cc(F)c5c(c4C)CCCO5)c([C@H](OC(C)(C)C)C(=O)O)c(C)nc3c2C)c1` [Example 160, (2S)-2-(tert-Butoxy)-2-(7-(8-fluoro-5-methylchroman-6-yl)-2-(3-(4-methoxypyridin-3-yl)phenyl)-3,5-dimethylpyrazolo[1,5-a]pyrimidin-6-yl)acetic acid] showed an EC50 of 0.01 µM. `Cc1nc2cc(-c3ccccc3)nn2c(C)c1C(OC(C)(C)C)C(=O)O` (stereo not drawn) [Example 43, 2-tert-Butoxy-2-(5,7-dimethyl-2-phenylpyrazolo[1,5-a]pyrimidin-6-yl)acetic acid, TFA salt] showed an EC50 of 40 µM.
